IC50 data for 15 molecules are collected here from ChEMBL document CHEMBL1132484, “New alpha-substituted succinate-based hydroxamic acids as TNFalpha convertase inhibitors” (J Med Chem, 1999).

One assay deals with T1, Interstitial collagenase (Homo sapiens, UniProt P03956).
T1 sequence (P03956 whole entry): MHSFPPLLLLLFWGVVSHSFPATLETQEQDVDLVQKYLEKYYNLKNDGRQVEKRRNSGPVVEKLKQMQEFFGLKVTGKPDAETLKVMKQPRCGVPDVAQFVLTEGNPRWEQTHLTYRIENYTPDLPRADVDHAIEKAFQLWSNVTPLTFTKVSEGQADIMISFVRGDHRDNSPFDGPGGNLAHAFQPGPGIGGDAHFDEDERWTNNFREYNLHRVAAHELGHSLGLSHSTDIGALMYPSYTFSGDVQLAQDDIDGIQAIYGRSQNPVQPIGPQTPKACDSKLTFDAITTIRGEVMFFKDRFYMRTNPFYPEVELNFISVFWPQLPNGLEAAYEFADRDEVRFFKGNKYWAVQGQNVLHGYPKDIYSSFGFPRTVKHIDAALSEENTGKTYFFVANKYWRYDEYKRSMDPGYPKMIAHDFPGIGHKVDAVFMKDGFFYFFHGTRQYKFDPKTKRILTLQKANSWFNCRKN
Put plainly: Inhibitory activity against MMP-1 (Matrix metalloprotease-1).

In assay [1] the target is T2, Disintegrin and metalloproteinase domain-containing protein 17 (Homo sapiens, UniProt P78536). Put plainly: Inhibition of TNF(tumor necrosis factor) in human blood. It counts as functional.
For assay [2], the target named is T2, Disintegrin and metalloproteinase domain-containing protein 17. Put plainly: Inhibitory activity against Tumor necrosis factor alpha-converting enzyme (TACE) in blood. It counts as tissue-based.
The target in the next assay is Neutrophil collagenase (Homo sapiens, UniProt P22894). Put plainly: Inhibition of MMP-8 (matrix metalloprotease-8).
Sequence of Neutrophil collagenase (P22894 whole entry): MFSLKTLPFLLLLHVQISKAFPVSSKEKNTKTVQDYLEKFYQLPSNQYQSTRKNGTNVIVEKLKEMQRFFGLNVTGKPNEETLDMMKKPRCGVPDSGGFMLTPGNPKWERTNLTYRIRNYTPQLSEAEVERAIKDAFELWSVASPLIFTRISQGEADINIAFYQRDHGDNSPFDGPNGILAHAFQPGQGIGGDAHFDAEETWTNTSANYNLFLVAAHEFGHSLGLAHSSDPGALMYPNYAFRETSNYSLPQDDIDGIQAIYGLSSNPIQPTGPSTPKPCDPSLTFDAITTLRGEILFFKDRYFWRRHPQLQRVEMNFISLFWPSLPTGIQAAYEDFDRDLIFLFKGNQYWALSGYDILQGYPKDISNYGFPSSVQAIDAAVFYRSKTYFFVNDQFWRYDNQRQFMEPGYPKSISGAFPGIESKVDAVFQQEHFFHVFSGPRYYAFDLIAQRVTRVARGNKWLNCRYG

T2 sequence (P78536 whole entry, the tested form may be a part): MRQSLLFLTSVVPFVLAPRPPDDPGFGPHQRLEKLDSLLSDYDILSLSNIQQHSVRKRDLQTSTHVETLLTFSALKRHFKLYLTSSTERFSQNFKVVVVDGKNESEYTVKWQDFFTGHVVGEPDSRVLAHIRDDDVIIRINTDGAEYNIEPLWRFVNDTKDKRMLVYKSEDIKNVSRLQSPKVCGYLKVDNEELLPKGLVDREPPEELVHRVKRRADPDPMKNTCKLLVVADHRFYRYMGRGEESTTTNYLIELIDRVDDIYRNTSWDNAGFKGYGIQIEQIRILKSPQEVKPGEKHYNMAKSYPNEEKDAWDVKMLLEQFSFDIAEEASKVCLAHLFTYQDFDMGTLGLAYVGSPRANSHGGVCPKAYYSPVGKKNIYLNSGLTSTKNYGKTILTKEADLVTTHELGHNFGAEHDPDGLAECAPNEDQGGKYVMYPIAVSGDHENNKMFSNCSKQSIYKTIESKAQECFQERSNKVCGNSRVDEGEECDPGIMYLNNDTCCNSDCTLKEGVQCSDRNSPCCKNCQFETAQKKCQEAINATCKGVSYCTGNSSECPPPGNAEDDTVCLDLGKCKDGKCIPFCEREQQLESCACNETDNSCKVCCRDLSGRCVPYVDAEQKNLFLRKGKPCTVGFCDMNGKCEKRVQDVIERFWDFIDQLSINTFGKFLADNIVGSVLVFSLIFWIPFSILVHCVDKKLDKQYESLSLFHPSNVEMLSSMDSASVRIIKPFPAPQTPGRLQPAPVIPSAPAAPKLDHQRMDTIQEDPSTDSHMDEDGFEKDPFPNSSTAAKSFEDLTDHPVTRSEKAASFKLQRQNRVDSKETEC

A word on the IC50: it is the concentration that gives 50% inhibition. As for `CNC(=O)[C@@H](NC(=O)[C@H](CC(C)C)[C@H](OCc1ccc2c(ccc(=O)n2C)c1)C(=O)NO)C(C)(C)C`, the IC50 stood at 0.88 nM on Interstitial collagenase, 1440 nM in assay [1] and 1 nM in assay [2].

Take `CNC(=O)[C@@H](NC(=O)C(CC(C)C)C(C(=O)NO)N(C)S(=O)(=O)c1ccccc1)C(C)(C)C` (single isomer, unassigned): the results for the IC50 (against Interstitial collagenase; in assay [1]; in assay [2]) were 1.5 nM, 3000 nM and 0.61 nM, respectively.

Consider `CNC(=O)[C@@H](NC(=O)[C@H](CC(C)C)[C@H](NS(=O)(=O)c1ccc2ncccc2c1)C(=O)NO)C(C)(C)C`, for which the IC50 against Interstitial collagenase turned out to be 1.2 nM; in assay [1], 440 nM; in assay [2], 1.6 nM.

For `C=CCC(C(=O)NO)C(CC(C)C)C(=O)N[C@@H](Cc1ccccc1)C(=O)NC` (single isomer, unassigned), the IC50 on Neutrophil collagenase is 3 nM; in assay [1], 2300 nM; in assay [2] it was 0.2 nM.

As to `CNC(=O)[C@@H](NC(=O)[C@H](CC(C)C)[C@H](NC(=O)c1cccc2cccnc12)C(=O)NO)C(C)(C)C`, the results for the IC50 (against Interstitial collagenase; in assay [1]; in assay [2]) were 2.2 nM, 8000 nM and 2 nM, respectively.

With `CNC(=O)[C@@H](NC(=O)[C@H](CC(C)C)[C@H](NS(=O)(=O)c1cccc2cccnc12)C(=O)NO)C(C)(C)C`, the IC50 was 1.1 nM at Interstitial collagenase, 8100 nM in assay [1] and 4.2 nM in assay [2].

`CNC(=O)[C@@H](NC(=O)[C@H](CCCOCc1ccccc1)[C@H](OCc1ccc2nc(C)nc(O)c2c1)C(=O)NO)C(C)(C)C`: the figures for the IC50 (at Interstitial collagenase; in assay [2]) were 330 nM and 12 nM, respectively.

With `CNC(=O)[C@@H](NC(=O)[C@H](CC(C)C)[C@H](SCc1cccc2cccnc12)C(=O)NO)C(C)(C)C`, the IC50 against Interstitial collagenase was found to be 2.8 nM; in assay [1], 6200 nM; in assay [2], 0.8 nM.

Take `CNC(=O)[C@@H](NC(=O)[C@H](CC(C)C)[C@H](NCc1cccc2cccnc12)C(=O)NO)C(C)(C)C`: the IC50 at Neutrophil collagenase turned out to be 0.2 nM; at Interstitial collagenase it was 1.7 nM; in assay [1] it was 34000 nM; in assay [2] it was 0.23 nM.

Turning to `CNC(=O)[C@@H](NC(=O)[C@H](CC(C)C)[C@H](NS(=O)(=O)c1cccc2cnccc12)C(=O)NO)C(C)(C)C`, the IC50 stood at 2.6 nM against Interstitial collagenase, 1100 nM in assay [1] and 3.1 nM in assay [2].

As to `CNC(=O)[C@@H](NC(=O)[C@H](CC(C)C)[C@@H](C(=O)NO)N(C)S(=O)(=O)c1cccc2cccnc12)C(C)(C)C`, the results for the IC50 (against Interstitial collagenase; in assay [1]; in assay [2]) were 2.4 nM, 4500 nM and 4.4 nM, respectively.

For `CNC(=O)[C@@H](NC(=O)[C@H](CC(C)C)[C@@H](C(=O)NO)N1CCOCC1)C(C)(C)C`, the IC50 against Interstitial collagenase is 2.2 nM; in assay [1] it was 3000 nM; in assay [2], 3.4 nM.

Consider `CNC(=O)[C@@H](NC(=O)C(CC(C)C)C(C(=O)NO)C1CCCC1)C(C)(C)C` (single isomer, unassigned), for which the IC50 was determined as 20 nM against Neutrophil collagenase, 4 nM against Interstitial collagenase, 8800 nM in assay [1] and 1 nM in assay [2].

`CNC(=O)[C@@H](NC(=O)[C@@H](CC(=O)NO)CC(C)C)C(C)(C)C` [RO-319790]: the IC50 is 10 nM on Interstitial collagenase, more than 50000 nM in assay [1] and 20 nM in assay [2].

Regarding `CNC(=O)[C@@H](NC(=O)[C@H](CC(C)C)[C@H](NS(=O)(=O)c1ccc2ncnc(O)c2c1)C(=O)NO)C(C)(C)C`, the IC50 on Neutrophil collagenase was 3.7 nM; on Interstitial collagenase it was 1.3 nM; in assay [1], 280 nM; in assay [2] it was 0.57 nM.
